Assay results: US20100062012A1, “Negative Genetic Regulation of Cancer Cell Renewal in Synergy with Notch- or Numb-Specific Immunotherapy” (priority 2007, published 2010)
Structures can show the parent of a compound that is named as a salt. Blank lines part the entries; values can stand above or below the compound they belong to. Peptide text beside a SMILES is read from it. * marks the point of attachment. Cbz = O=C(OCc1ccccc1)*

Assays:
breast tumors = settings: reference 14; cited from earlier work
SKOV3.A2 cells = experiment: IFN-g production by Numb-1 peptide activated PBMC on SKOV3.A2 cells; assay type: cell-based, human; settings: presentation of Numb-1(87-95) peptide; 24 h and 48 h
Method: FIG. 11. (A). SKOV3.A2 cells present the Numb-1 (87-95) peptide to Numb-1 peptide activated PBMC. Substantially higher, by 2-fold IFN-g production by Numb-1-peptide activated PBMC than by Notch peptides activated PBMC. Note that at 48 h the amount of IFN g produced by the two Notch peptide activated cell lines and the non-specifically, IL-2-activated cell lines was low and similar. Only Notch peptide, 2112-2120, can be presented by HL-A2 after Notch digestion by proteasome. (the program paproc.de). (B). Western analysis of Notch and Numb protein expression in SKOV3. […] A part of Numb is phosphorylated. A small part of Numb was phosphorylated at the Ser^283. A large part of Numb was phosphorylated at the Ser^264. […] The closed symbols indicate are 24 h measurements, the open symbols indicate 48 h measurements.

MIA-PaCa-2 [1] = experiment: Flow cytometry of NKG2D ligands MIC-A/B in drug-resistant cells; assay type: cell-based, human; settings: MIA PaCa-2, FIG. 7A
Method: (§1) Flow cytometery analysis. All cells were cultured with Gem at 2×IC50 of gemcitabine for 10 days. Cultured cells (2×10^5) were washed in cold-PBS followed by blocking with 20 μL of 1 mg/mL of human IgG (Sigma, Saint Louis, Mo.) for 1 hour on ice. This step was necessary to inhibit non-specific binding of immunoglobulins during staining. Cells were then triple-stained with antibodies against ESA, CD44, and CD24. Analysis was performed with Becton Dickinson FACSCalibur and Cell Quest software (Becton Dickinson). Cells were gated on ESA+ population. Expression of CD24 and CD44 was examined in gated ESA+ cells as we described (26). The population of the ESA+, CD44hi and CD24low/− cells was calculated as percent of total cells and total ESA+ cells. All cell lines were also stained with a MIC-A/B and CD133, and analyzed as above.
To address the hypothesis that drug-resistant cancer cells are more sensitive to cellular immune effectors, we quantified expression of NKG2D ligands, MIC-A and -B (58, 59). ESA^+ MIA-PaCa-2 cells were analyzed for MIC-A/B. MCF7 cells were analyzed with CD44, CD24 and MIC-A/B (FIG. 7B), because almost all MCF7 cells (95% and more) expressed ESA.

MIA-PaCa-2 [2] = experiment: Flow cytometry of CSt-C markers after culture with drugs; assay type: cell-based, human; settings: for % CD44hi CD24- in ESA+ cells / % CD44hi CD24hi in ESA+ cells / % CD44hi CD24low in ESA+ cells / % CSt-like-C / % ESA+: MIA-PaCa-2 after culture with drug
Method: as §1

MCF7 [3] = experiment: as above; assay type: cell-based, human; settings: for cells harvested: after culture of 3×10^6 MCF-7 cells
Method: as §1

SKOV-3 [4] = experiment: MTT inhibition of proliferation; assay type: cell-based, human; settings: SKOV-3, MTT
Source text: (§2) Inhibition of proliferation of tumor cell lines by anticancer drugs.

AsPC-1 [5] = experiment: MTT inhibition of proliferation; assay type: cell-based, human; settings: for IC50: AsPC-1, MTT, 72 h
Source text: as §2

MIA-PaCa-2 [6] = experiment: MTT inhibition of proliferation; assay type: cell-based; settings: Homo sapiens; MIA-PaCa-2, MTT, 72 h
Source text: as §2

PANC-1 [7] = experiment: MTT inhibition of proliferation; assay type: cell-based; settings: Homo sapiens; PANC-1, MTT, 72 h
Source text: as §2

MCF7 [8] = experiment: MTT inhibition of proliferation; assay type: cell-based; settings: Homo sapiens, 72 h
Source text: as §2

MIA-PaCa-2 [9] = experiment: Flow cytometry of CSt-C markers after culture with drugs; assay type: cell-based, human; settings: starting from 3.0×10^6 Mia-PaCa-2 cells
Ovarian and PC = experiment: CD44+ CD24lo cells after taxol; assay type: cell-based; settings: Ovarian and PC treated
SKOV-3 [10] = experiment: Flow cytometry of CSt-C markers after culture with drugs; assay type: cell-based, human
Method: as §1

PANC-1 [11] = experiment: as above; assay type: cell-based, human
Method: as §1

AsPC-1 [12] = experiment: as above; assay type: cell-based, human; settings: AsPC-1 after culture with drug
Method: as §1

MIA-PaCa-2 [13] = experiment: Quantitative immunoblot of Notch and Numb proteins with or without GEM; assay type: cell-based, human
Method: (§3) Western blot analysis. Cell lysates of live MIA-PaCa-2, MCF7, and SKOV-3 were prepared as we described (74) after trypsin treatment of cultures. This procedure eliminated dead and dying cells. Cellular proteins were resolved by SDS-PAGE and transferred to a polyvinylidene difluoride membrance. Immuno-blotting and quantification was performed as we described (74). […] Notch signals promote survival and proliferation of normal stem cells. Notch signals are mediated by truncated intracellular domain (NICD), which activate transcription in the nucleus. Numb antagonizes Notch signal by inducing degradation of Notch (60, 13). Mammalian Numb has four splicing isoforms, which are divided into two types (Numb^L and Numb^S) based on the presence or absence of a 49 amino acid insert (5 kDa) in the proline-rich region (PRR) in the C-terminus. It is unclear whether Numb^L or Numb^S is a significant antagonist of Notch. To characterize expression of Notch and Numb proteins we performed quantitative immunoblot analysis of proteins in the lysates of live MIA-PaCa-2 and MCF7 cultured with or without GEM. (FIG. 9).

MCF7 [14] = experiment: as above; assay type: cell-based, human
Method: as §3

MCF7 cells = experiment: Stimulation of MCF7 / GEMRes MCF7 by DLL4; assay type: cell-based, human
Method: Stimulation of GEMRes MCF7 by DLL4. GEMRes MCF7 were obtained after culture with 0.3 uM GEM for 7 weeks. MCF7 were stimulated for 24 hrs, in medium containing estradiol, fibroblast growth factor in the presence or absence of DLL4, as described (40).

SMILES: CC(C)C[C@@H](C=O)NC(=O)[C@H](CC(C)C)NC(=O)[C@H](CC(C)C)NC(=O)OCc1ccccc1 [MG132] (Cbz-Leu-Leu-Leu-aldehyde)
low Numb levels after treatment (breast tumors): restored to high levels

SMILES: CN[C@@H]1C[C@H]2O[C@@](C)([C@@H]1OC)n1c3ccccc3c3c4c(c5c6ccccc6n2c5c31)C(=O)NC4 [staurosporine]
effect of treatment of SKOV3.A2 cells on IFN-g production by the indicator cell line (SKOV3.A2 cells): abolished

SMILES: C[S+]([O-])c1ccc(-c2nc(-c3ccc(F)cc3)c(-c3ccncc3)[nH]2)cc1 (stereo not shown) [SB20380]
effect of treatment of SKOV3.A2 cells on IFN-g production by the indicator cell line (SKOV3.A2 cells): weaker inhibitory effect

number of cells expressing MICA and MICB in drug-resistant cells (MIA-PaCa-2 [1]): did not increase | IC50 (SKOV-3 [4]; Homo sapiens, SK-OV-3, 72 h): 4.7 nM | IC50 (AsPC-1 [5]; Homo sapiens, ASPC1, 72 h): 18.3 nM | IC50 in AsPC-1 relative to PANC-1 (AsPC-1 [5]; most resistant vs most sensitive line): more than 4 fold | IC50 (MIA-PaCa-2 [6]): 5.3 nM | IC50 (PANC-1 [7]): 3.9 nM | IC50 (MCF7 [8]): 4.5 nM
SMILES: CC(=O)O[C@H]1C(=O)[C@@]2(C)[C@H]([C@H](OC(=O)c3ccccc3)[C@]3(O)C[C@H](OC(=O)[C@H](O)[C@@H](NC(=O)c4ccccc4)c4ccccc4)C(C)=C1C3(C)C)[C@]1(OC(C)=O)CO[C@@H]1C[C@@H]2O [PTX, paclitaxel]
% CD44hi CD24- in ESA+ cells (MIA-PaCa-2 [2]): 1.0% | % CD44hi CD24hi in ESA+ cells (MIA-PaCa-2 [2]): 21.2% | % CD44hi CD24low in ESA+ cells (MIA-PaCa-2 [2]): 23.1% | % CSt-like-C (MIA-PaCa-2 [2]): 7.7% | % ESA+ (MIA-PaCa-2 [2]): 33.2% | change of CSt-like-C population (MCF7 [3]; MCF7): increased | cells harvested (MCF7 [3]): 0.4 ×10^6 | cells harvested (MIA-PaCa-2 [9]): 3.3 ×10^6 cells | number of CD44+ CD24lo cells (Ovarian and PC): increased

number of cells expressing MICA and MICB in drug-resistant cells (MIA-PaCa-2 [1]): increased | IC50 (SKOV-3 [4]; Homo sapiens, SK-OV-3, 72 h): < 20 nM | IC50 (SKOV-3 [4]; 72 h, hydrochloride): 16 nM | IC50 (AsPC-1 [5]; hydrochloride): 20 nM | IC50 (AsPC-1 [5]; Homo sapiens, ASPC1, 72 h): < 20 nM | IC50 (MIA-PaCa-2 [6]): 300 nM | IC50 (PANC-1 [7]): 350 nM | IC50 (MCF7 [8]): 430 nM
SMILES: Nc1ccn([C@@H]2O[C@H](CO)[C@@H](O)C2(F)F)c(=O)n1 [GEM, gemcitabine hydrochloride]
increase of ESA+ CD44hi CD24low and CD133+ populations in GEMRes population vs entire population (SKOV-3 [10]; SKOV3): 3-5 fold | % CD44hi CD24- in ESA+ cells (SKOV-3 [10]; SKOV-3 after culture with drug): 0.1% | % CD44hi CD24hi in ESA+ cells (SKOV-3 [10]; SKOV-3 after culture with drug): 46.0% | % CD44hi CD24low in ESA+ cells (SKOV-3 [10]; SKOV-3 after culture with drug): 51.5% | % CSt-like-C (SKOV-3 [10]; SKOV-3 after culture with drug): 50.2% | % ESA+ (SKOV-3 [10]; SKOV-3 after culture with drug): 97.5% | change of CSt-C (CSt-like-C) population (MIA-PaCa-2 [2]; MIA-PaCa-2): increased | % CD44hi CD24- in ESA+ cells (MIA-PaCa-2 [2]): 1.1% | % CD44hi CD24hi in ESA+ cells (MIA-PaCa-2 [2]): 12.2% | % CD44hi CD24low in ESA+ cells (MIA-PaCa-2 [2]): 43.2% | % CSt-like-C (MIA-PaCa-2 [2]): 17.0% | % ESA+ (MIA-PaCa-2 [2]): 39.5% | increase of ESA+ CD44hi CD24low and CD133+ populations in GEMRes population vs entire population (MIA-PaCa-2 [2]; Mia-PaCa-2): 3-5 fold | increase of ESA+ CD44hi CD24low and CD133+ populations in GEMRes population vs entire population (PANC-1 [11]; PANC-1): 3-5 fold | % CD44hi CD24- in ESA+ cells (PANC-1 [11]; PANC-1 after culture with drug): 8.6% | % CD44hi CD24hi in ESA+ cells (PANC-1 [11]; PANC-1 after culture with drug): 9.7% | % CD44hi CD24low in ESA+ cells (PANC-1 [11]; PANC-1 after culture with drug): 50.0% | % CSt-like-C (PANC-1 [11]; PANC-1 after culture with drug): 38.3% | % ESA+ (PANC-1 [11]; PANC-1 after culture with drug): 76.7% | change of CSt-like-C population (MCF7 [3]; MCF7): increased | increase of ESA+ CD44hi CD24low and CD133+ populations in GEMRes population vs entire population (MCF7 [3]; MCF7): 3-5 fold | % CD44hi CD24- in ESA+ cells (MCF7 [3]; MCF7 after culture with drug): 0.3% | % CD44hi CD24hi in ESA+ cells (MCF7 [3]; MCF7 after culture with drug): 10.2% | % CD44hi CD24low in ESA+ cells (MCF7 [3]; MCF7 after culture with drug): 6.3% | % CSt-like-C (MCF7 [3]; MCF7 after culture with drug): 6.3% | % ESA+ (MCF7 [3]; MCF7 after culture with drug): 95.4% | cells harvested (MCF7 [3]): 0.6 ×10^6 | % CD44hi CD24- in ESA+ cells (AsPC-1 [12]): 19.3% | % CD44hi CD24hi in ESA+ cells (AsPC-1 [12]): 20.1% | % CD44hi CD24low in ESA+ cells (AsPC-1 [12]): 58.2% | % CSt-like-C (AsPC-1 [12]): 57.6% | % ESA+ (AsPC-1 [12]): 98.9% | NECD expression increase, GEMRes vs GEMSens (MIA-PaCa-2 [13]): 18% | NICD level increase, GEMRes vs GEMSens (MIA-PaCa-2 [13]): 35% | NumbL expression increase, GEMRes vs GEMSens (MIA-PaCa-2 [13]): 50% | NumbS decrease, GEMRes vs GEMSens (MIA-PaCa-2 [13]): 18% | NECD expression increase, GEMRes vs GEMSens (MCF7 [14]): 73% | NICD level decrease, GEMRes vs GEMSens (MCF7 [14]): 39% | NumbL expression decrease, GEMRes vs GEMSens (MCF7 [14]): 29% | NumbS decrease, GEMRes vs GEMSens (MCF7 [14]): 18% | cells harvested (MIA-PaCa-2 [9]): 1.3 ×10^6 cells | GEMRes MCF7 cells in G1 (resting) phase (MCF7 cells): > 90% | CD44hi CD24hi (% of cells) (MCF7 cells; MCF7): 19.7% | CD44hi CD24hi (cell number) (MCF7 cells; MCF7): 0.26 | CD44hi CD24low (% of cells) (MCF7 cells; MCF7): (7.1%) | CD44hi CD24low (cell number) (MCF7 cells; MCF7): 0.09 × 10^6 | ratio CD44hi CD24hi to CD44hi CD24low (MCF7 cells; MCF7): 2 | Stimulation Index (MCF7 cells; MCF7, harvested/seeded): 0.44 | Harvested cells (MCF7 cells; MCF7, seeded 3.0 x 10^6): 1.32 10^6
